Measurements: patent US8415469B2, “Compounds and methods for kinase modulation, and indications therefor” (Plexxikon Inc., priority 2005, dated 2013)

Tests used:
Format in all cases: biochemical
Kit = biological target: T1, Kit (Homo sapiens, UniProt P10721); assay: AlphaScreen kinase assay, Kit; conditions: read-out: IC50, activity toward kinase Kit
T1 construct: P1332.N6 BI PTP KIT M552-K948-X COD; His6 (N); made in house; host or cells: E. coli (PTP1B co-expressed)

Src = biological target: T2, Src (Homo sapiens, UniProt P12931); assay: AlphaScreen kinase assay, Src; conditions: read-out: IC50, activity toward kinase Src
T2 construct: P1144. pET-N6 BI-PTP SRC V86-L536-X; made in house

B-Raf V600E = biological target: T3, B-Raf V600E (Homo sapiens, UniProt P15056, V600E); assay: AlphaScreen kinase assay, B-Raf V600E; conditions: read-out: IC50, activity toward kinase B-Raf V600E
T3 construct: P4254. pFastBacBD-CDC37 BRAF D437-K722-X, V600E; His6 with pFastBac HT leader (TEV site) (N); made in house; host or cells: Sf9 (baculovirus; chaperone CDC37 co-expressed)

Fms = biological target: T4, Fms (Homo sapiens, UniProt P07333); assay: AlphaScreen kinase assay, Fms; conditions: read-out: IC50, activity toward kinase Fms
T4 construct: purchased Upstate Biotechnology

FGFR1 = biological target: T5, FGFR1 (Homo sapiens, UniProt P11362, C488A/C584S); assay: AlphaScreen kinase assay, FGFR1; conditions: read-out: IC50, activity toward kinase FGFR
T5 construct: P1351.pET N6 BI-PTP FGFR A458-E765-X C488A, C584S; made in house; host or cells: E. coli (PTP1B co-expressed)

c-Raf-1 = biological target: T6, c-Raf-1 (Homo sapiens, UniProt P04049); assay: AlphaScreen kinase assay, c-Raf-1; conditions: read-out: IC50, activity toward kinase c-Raf-1
T6 construct: purchased Upstate Biotechnology

Jnk1 = biological target: T7, Jnk1 (Homo sapiens, UniProt P45983); assay: AlphaScreen kinase assay, Jnk1; conditions: read-out: IC50, activity toward kinase Jnk1
T7 construct: purchased Upstate Biotechnology

B-Raf = biological target: T8, B-Raf (Homo sapiens, UniProt P15056); assay: AlphaScreen kinase assay, B-Raf; conditions: read-out: IC50, activity toward kinase B-Raf
T8 construct: purchased Upstate Biotechnology

Flt1 = biological target: T9, Flt1 (Homo sapiens, UniProt P17948); assay: AlphaScreen kinase assay, Flt1; conditions: read-out: IC50, activity toward kinase Flt1
T9 construct: P1826.pETN6 BI-PTP FLT1 M799-D1165-X WT; His6 (N); made in house; host or cells: E. coli (PTP1B co-expressed)
T9 sequence (P17948 with tags, fused parts or gaps): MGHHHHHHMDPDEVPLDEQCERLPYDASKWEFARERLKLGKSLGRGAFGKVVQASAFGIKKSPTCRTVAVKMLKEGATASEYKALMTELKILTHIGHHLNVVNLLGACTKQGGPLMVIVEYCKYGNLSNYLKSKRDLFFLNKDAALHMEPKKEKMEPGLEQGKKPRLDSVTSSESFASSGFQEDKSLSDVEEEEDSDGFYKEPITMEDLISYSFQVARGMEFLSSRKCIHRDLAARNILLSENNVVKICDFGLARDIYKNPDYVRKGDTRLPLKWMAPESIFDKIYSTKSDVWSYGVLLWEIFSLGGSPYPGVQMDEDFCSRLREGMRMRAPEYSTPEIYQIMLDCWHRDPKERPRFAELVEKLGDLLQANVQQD

Measured: IC50

T8 sequence (P15056 whole entry): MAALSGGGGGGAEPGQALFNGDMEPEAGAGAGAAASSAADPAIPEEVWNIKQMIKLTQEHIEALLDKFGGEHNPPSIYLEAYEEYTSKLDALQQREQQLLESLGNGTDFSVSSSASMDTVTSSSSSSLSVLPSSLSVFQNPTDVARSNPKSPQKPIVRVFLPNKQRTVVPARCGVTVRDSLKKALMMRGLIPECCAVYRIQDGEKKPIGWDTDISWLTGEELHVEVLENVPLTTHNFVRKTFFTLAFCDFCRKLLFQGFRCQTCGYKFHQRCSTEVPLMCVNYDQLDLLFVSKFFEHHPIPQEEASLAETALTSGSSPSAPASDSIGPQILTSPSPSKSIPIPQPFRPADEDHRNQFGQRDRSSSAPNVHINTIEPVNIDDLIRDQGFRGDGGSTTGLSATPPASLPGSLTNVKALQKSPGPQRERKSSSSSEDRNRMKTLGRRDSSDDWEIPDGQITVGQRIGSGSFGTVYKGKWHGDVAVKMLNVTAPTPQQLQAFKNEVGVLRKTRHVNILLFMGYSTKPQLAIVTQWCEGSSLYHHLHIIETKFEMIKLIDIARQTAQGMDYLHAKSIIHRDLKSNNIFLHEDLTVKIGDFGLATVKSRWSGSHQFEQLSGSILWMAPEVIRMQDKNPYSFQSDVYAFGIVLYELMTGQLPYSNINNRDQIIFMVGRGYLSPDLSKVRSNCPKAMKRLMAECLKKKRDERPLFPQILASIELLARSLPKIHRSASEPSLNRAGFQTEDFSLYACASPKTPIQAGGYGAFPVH
T3 sequence (P15056 with tags, fused parts or gaps V600E): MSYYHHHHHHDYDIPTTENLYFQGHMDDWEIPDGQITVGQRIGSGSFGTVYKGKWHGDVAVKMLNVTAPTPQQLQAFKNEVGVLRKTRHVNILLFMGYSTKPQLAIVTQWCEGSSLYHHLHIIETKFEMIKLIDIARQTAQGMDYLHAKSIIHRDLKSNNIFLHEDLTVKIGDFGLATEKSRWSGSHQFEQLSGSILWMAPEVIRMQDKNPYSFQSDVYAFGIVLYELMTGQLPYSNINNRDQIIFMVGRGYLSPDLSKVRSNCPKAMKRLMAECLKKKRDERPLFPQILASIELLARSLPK
T6 sequence (P04049 whole entry): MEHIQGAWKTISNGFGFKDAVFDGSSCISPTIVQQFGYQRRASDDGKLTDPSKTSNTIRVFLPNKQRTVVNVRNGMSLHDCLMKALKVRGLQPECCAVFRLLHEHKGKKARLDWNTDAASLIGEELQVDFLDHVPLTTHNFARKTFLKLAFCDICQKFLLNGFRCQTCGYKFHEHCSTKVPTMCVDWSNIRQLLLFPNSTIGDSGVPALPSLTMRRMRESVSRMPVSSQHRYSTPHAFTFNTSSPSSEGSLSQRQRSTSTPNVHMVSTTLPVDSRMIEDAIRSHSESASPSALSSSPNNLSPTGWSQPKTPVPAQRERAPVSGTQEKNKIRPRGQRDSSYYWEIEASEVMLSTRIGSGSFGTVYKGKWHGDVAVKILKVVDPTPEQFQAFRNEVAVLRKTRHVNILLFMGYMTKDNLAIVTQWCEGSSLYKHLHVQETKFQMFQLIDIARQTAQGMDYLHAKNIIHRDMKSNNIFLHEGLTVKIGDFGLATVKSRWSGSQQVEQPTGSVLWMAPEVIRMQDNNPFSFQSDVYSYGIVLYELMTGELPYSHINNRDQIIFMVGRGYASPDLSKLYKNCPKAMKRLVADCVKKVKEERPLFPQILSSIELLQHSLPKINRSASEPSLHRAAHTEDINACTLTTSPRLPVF
T4 sequence (P07333 20-972): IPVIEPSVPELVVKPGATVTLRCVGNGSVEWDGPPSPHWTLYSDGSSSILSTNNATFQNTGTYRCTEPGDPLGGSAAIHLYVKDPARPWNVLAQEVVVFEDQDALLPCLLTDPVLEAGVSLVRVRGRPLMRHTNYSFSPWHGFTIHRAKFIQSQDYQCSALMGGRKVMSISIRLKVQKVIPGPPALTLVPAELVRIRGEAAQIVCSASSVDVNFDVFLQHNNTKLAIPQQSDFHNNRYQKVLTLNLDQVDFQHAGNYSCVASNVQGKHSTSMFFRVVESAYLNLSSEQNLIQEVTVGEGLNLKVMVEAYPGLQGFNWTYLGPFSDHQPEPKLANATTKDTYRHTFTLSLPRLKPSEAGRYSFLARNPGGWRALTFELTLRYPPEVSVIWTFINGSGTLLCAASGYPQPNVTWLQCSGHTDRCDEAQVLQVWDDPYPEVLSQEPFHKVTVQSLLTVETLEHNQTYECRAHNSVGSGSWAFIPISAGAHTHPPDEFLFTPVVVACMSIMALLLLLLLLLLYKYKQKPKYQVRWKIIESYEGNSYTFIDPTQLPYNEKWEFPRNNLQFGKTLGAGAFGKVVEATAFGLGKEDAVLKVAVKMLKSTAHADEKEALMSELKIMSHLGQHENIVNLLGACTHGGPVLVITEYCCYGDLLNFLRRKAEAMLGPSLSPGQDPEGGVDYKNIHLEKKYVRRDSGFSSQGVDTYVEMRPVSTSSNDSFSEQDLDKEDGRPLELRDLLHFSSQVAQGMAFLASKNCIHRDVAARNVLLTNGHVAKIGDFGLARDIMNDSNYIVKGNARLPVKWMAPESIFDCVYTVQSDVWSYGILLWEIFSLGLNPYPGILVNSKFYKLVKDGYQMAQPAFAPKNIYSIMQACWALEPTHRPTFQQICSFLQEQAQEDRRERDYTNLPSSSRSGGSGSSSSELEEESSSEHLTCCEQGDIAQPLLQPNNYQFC
T7 sequence (P45983 whole entry): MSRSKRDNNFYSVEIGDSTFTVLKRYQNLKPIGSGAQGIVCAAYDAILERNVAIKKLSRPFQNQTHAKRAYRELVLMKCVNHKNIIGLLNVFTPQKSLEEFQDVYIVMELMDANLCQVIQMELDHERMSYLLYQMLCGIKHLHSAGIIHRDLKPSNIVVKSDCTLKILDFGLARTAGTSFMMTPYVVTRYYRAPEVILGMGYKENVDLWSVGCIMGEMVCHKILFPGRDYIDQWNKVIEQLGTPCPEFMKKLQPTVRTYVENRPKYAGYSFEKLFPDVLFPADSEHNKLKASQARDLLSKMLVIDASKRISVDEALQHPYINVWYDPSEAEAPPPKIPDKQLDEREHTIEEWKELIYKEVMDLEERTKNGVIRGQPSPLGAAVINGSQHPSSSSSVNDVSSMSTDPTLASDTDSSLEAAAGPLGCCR
T5 sequence (P11362 458-765 C488A/C584S): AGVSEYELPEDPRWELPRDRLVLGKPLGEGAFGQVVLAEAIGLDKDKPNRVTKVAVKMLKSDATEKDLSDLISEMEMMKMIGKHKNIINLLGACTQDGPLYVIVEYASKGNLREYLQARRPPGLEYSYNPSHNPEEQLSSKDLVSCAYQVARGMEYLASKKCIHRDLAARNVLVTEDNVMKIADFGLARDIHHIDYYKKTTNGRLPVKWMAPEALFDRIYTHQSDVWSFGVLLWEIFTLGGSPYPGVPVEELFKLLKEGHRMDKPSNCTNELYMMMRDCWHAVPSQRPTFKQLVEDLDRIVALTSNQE
T2 sequence (P12931 with tags, fused parts or gaps): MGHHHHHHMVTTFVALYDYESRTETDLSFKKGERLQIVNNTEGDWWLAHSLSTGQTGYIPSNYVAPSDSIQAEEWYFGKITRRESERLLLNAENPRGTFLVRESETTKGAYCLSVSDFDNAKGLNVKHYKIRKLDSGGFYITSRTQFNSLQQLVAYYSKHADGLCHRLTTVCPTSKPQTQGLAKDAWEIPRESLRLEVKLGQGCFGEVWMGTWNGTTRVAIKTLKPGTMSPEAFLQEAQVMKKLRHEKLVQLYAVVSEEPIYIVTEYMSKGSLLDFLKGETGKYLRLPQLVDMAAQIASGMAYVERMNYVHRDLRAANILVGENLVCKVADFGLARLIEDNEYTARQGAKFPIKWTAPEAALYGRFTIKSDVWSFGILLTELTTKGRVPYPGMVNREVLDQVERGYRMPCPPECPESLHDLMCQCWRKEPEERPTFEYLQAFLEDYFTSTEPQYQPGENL
T1 sequence (P10721 with tags, fused parts or gaps): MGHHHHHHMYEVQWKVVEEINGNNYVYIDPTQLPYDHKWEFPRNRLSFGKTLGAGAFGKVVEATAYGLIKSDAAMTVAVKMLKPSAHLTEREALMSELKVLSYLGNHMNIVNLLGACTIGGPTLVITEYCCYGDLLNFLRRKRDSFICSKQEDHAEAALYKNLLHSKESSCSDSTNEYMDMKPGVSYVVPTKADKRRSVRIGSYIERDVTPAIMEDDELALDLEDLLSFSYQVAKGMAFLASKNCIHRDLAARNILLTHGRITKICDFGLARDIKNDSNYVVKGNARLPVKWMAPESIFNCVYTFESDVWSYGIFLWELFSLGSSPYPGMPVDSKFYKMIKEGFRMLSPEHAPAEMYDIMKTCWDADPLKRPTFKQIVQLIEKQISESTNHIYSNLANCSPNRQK

CCCS(=O)(=O)Nc1ccc(F)c(C(=O)c2c[nH]c3ncc(-c4cccc(N(C)C)c4)cc23)c1F [Compound P-0876, Propane-1-sulfonic acid {3-[5-(3-dimethylamino-phenyl)-1H-pyrrolo[2,3-b]pyridine-3-carbonyl]-2,4-difluoro-phenyl}-amide]
not listed: Flt1
≤ 10 µM: all other assays above

CCCS(=O)(=O)Nc1ccc(F)c(C(=O)c2c[nH]c3ncc(-c4ccc(OC)cc4)cc23)c1F [Compound P-0877, Propane-1-sulfonic acid {2,4-difluoro-3-[5-(4-methoxy-phenyl)-1H-pyrrolo[2,3-b]pyridine-3-carbonyl]-phenyl}-amide]
not listed: Fms | Jnk1 | Flt1
≤ 10 µM: all other assays above

CCCS(=O)(=O)Nc1ccc(F)c(C(=O)c2c[nH]c3ncc(F)cc23)c1F [Compound P-0907, Propane-1-sulfonic acid [2,4-difluoro-3-(5-fluoro-1H-pyrrolo[2,3-b]pyridine-3-carbonyl)-phenyl]-amide]
not listed: Fms | Jnk1 | Flt1
≤ 10 µM: all other assays above

CN(C)S(=O)(=O)Nc1ccc(F)c(C(=O)c2c[nH]c3ncccc23)c1F [Compound P-0950, Dimethylamine-1-sulfonic acid [3-(1H-pyrrolo[2,3-b]pyridine-3-carbonyl)-2,4-difluoro-phenyl]-amide]
≤ 10 µM: Src | B-Raf V600E | FGFR1 | c-Raf-1

CCCS(=O)(=O)Nc1cccc(C(=O)c2c[nH]c3ncc(-c4cccnc4)cc23)c1F [Compound P-1251, Propane-1-sulfonic acid [2-fluoro-3-(5-pyridin-3-yl-1H-pyrrolo[2,3-b]pyridine-3-carbonyl)-phenyl]-amide]
≤ 10 µM: all assays above

CCCS(=O)(=O)Nc1ccc(F)c(C(=O)c2c[nH]c3ncc(OCCN(CC)CC)cc23)c1F [Compound P-1254, Propane-1-sulfonic acid {3-[5-(2-diethylamino-ethoxy)-1H-pyrrolo[2,3-b]pyridine-3-carbonyl]-2,4-difluoro-phenyl}-amide]
not listed: Fms | Jnk1 | Flt1
≤ 10 µM: all other assays above

CN(C)S(=O)(=O)Nc1ccc(F)c(C(=O)c2c[nH]c3ncc(Cl)cc23)c1F [Compound P-1258, Dimethylamine-1-sulfonic acid [3-(5-chloro-1H-pyrrolo[2,3-b]pyridine-3-carbonyl)-2,4-difluorophenyl]-amide]
≤ 10 µM: Src | B-Raf V600E | FGFR1 | c-Raf-1 | B-Raf

CCCCS(=O)(=O)Nc1ccc(F)c(C(=O)c2c[nH]c3ncc(Cl)cc23)c1F [Compound P-1265, Butane-1-sulfonic acid [3-(5-chloro-1H-pyrrolo[2,3-b]pyridine-3-carbonyl)-2,4-difluoro-phenyl]-amide]
not listed: Kit | Jnk1 | Flt1
≤ 10 µM: all other assays above

COc1cccc(C(=O)c2c[nH]c3ncc(-c4ccccc4)cc23)c1F [Compound P-1338, (2-Fluoro-3-methoxy-phenyl)-(5-phenyl-1H-pyrrolo[2,3-b]pyridin-3-yl)-methanone]
not listed: B-Raf V600E | Flt1
≤ 10 µM: all other assays above

CCCC(=O)Nc1ccc(F)c(C(O)c2c[nH]c3ncc(-c4cccnc4)cc23)c1F (stereo not drawn) [Compound P-1366]
not listed: c-Raf-1 | B-Raf
≤ 10 µM: all other assays above

O=S(=O)(Nc1ccc(F)c(Cc2c[nH]c3ncc(-c4cccnc4)cc23)c1F)c1ccccc1 [Compound P-1398]
≤ 10 µM: Src | B-Raf V600E | FGFR1 | c-Raf-1

O=C(O)/C=C/c1cccc(-c2cnc3[nH]cc(C(=O)c4cccc(C(F)(F)F)c4)c3c2)c1 [Compound P-1416, (E)-3-{3-[3-(3-Trifluoromethyl-benzoyl)-1H-pyrrolo[2,3-b]pyridin-5-yl]-phenyl}-acrylic acid]
not listed: c-Raf-1 | Jnk1 | B-Raf
≤ 10 µM: all other assays above

COC(=O)Nc1ccc(F)c(C(=O)c2c[nH]c3ncc(Br)cc23)c1F [Compound P-1448]
≤ 10 µM: Src | B-Raf V600E | Fms | FGFR1 | c-Raf-1

O=C(COc1ccc(F)c(Cc2c[nH]c3ncc(-c4cccnc4)cc23)c1F)NCc1ccccc1 [Compound P-1469, N-Benzyl-2-[2,4-difluoro-3-(5-pyridin-3-yl-1H-pyrrolo[2,3-b]pyridin-3-ylmethyl)-phenoxy]-acetamide]
not listed: c-Raf-1 | Jnk1
≤ 10 µM: all other assays above

COCCOc1ccc(F)c(C(=O)c2c[nH]c3ncc(-c4cccc(NS(C)(=O)=O)c4)cc23)c1F [Compound P-1472, N-(3-{3-[2,6-Difluoro-3-(2-methoxy-ethoxy)-benzoyl]-1H-yrrolo[2,3-b]pyridin-5-yl}-phenyl)-methanesulfonamide]
not listed: c-Raf-1 | Jnk1
≤ 10 µM: all other assays above

CS(=O)(=O)Nc1cccc(-c2cnc3[nH]cc(Cc4ccc5c(c4)OCCO5)c3c2)c1 [Compound P-1530, N-{3-[3-(2,3-Dihydro-benzo[1,4]dioxin-6-ylmethyl)-1H-pyrrolo[2,3-b]pyridin-5-yl]-phenyl}-methanesulfonamide]
not listed: c-Raf-1 | Jnk1 | B-Raf
≤ 10 µM: all other assays above
